Laboratory results published in US20260234136A1, “ISOXAZOLIDINES AS RIPK1 INHIBITORS AND USE THEREOF” (GENZYME CORPORATION, priority 2023, published 2026).

Tested on: U937 cells
Experiment: Cellular assay in U937 cells to measure the activity of RIPK1-inhibitors on cell death (necroptosis)
Format: cell-based
Conditions: Homo sapiens, U-937, 50 μM zVAD.fmk and 100 ng/ml recombinant human TNFα, overnight (18 to 24 hrs), MTS readout
Procedure: Absorbance of formazan was read at 490 nm. The inhibitory activity of the test compound was quantified in a concentration response curve (CRC) experiment.
Compounds were obtained as 10 mM stock solutions and were diluted 1 to 10 volumes with DMSO to yield a 1 mM solution. From this solution 2 μl were diluted with 998 μl growth medium.
U937 cells were cultured in RPMI1640 Glutamax and 10% heat inactivated FBS. […] 50 μl of compound dilutions, as described in Cellular assay in U937 cells, were added and the cell suspension incubated overnight (18 to 24 hrs) at 37° C., 5% CO2 in a humidified atmosphere (95% rH).
CellTiter 96 Aqueous reagent was mixed (100 μl PMS (phenazine methosulfate) solution/2 ml MTS (3-(4,5-[…])-5-(3-carboxymethoxyphenyl)-2-(4-sulfophenyl)-2H-tetrazolium, inner salt) solution) and 20 μl were added per well. After 4 hrs incubation at 37° C. (5% CO2 95% rH) optical density was measured at 490 nm on a microplate reader (Tecan Infinite M1000).
The % inhibition is expressed as percentage of the maximal inhibition value obtained in the absence of TNFα/zVAD.fmc.

Row | Compound | IC50 [nM]
1 | Cc1ncc([C@@H]2CCON2C(=O)C2CCN(c3nccc(C4CCO4)n3)CC2)cc1F (single isomer, unassigned) [Example 98] | 269
2 | O=C(C1CCN(c2cc(-c3cccnc3)ncn2)CC1)N1OCC[C@H]1c1cncc(F)c1 [Example 1, (S)-(3-(5-fluoropyridin-3-yl)isoxazolidin-2-yl)(1-(6-(pyridin-3-yl)pyrimidin-4-yl)piperidin-4-yl)methanone] | 37
3 | O=C1OCCN1c1nc(N2CCC(C(=O)N3OCC[C@H]3c3cnccn3)CC2)ncc1F [Example 5, 3-[5-fluoro-2-[4-[(3S)-3-pyrazin-2-ylisoxazolidine-2-carbonyl]-1-piperidyl]pyrimidin-4-yl]oxazolidin-2-one] | 5
4 | Cc1nc([C@@H]2CCON2C(=O)C2CCN(c3cc(-n4ccnc4C)ncn3)CC2)cs1 [Example 7, [1-[6-(2-methylimidazol-1-yl)pyrimidin-4-yl]-4-piperidyl]-[(3S)-3-(2-methylthiazol-4-yl)isoxazolidin-2-yl]methanone] | 9
5 | Cc1ccc([C@@H]2CCON2C(=O)C2CCN(c3ncc(F)c(-n4cccn4)n3)CC2)cn1 [Example 10, [1-(5-fluoro-4-pyrazol-1-yl-pyrimidin-2-yl)-4-piperidyl]-[(3S)-3-(6-methyl-3-pyridyl)isoxazolidin-2-yl]methanone] | 4
6 | O=C(C1CCN(c2nc(-c3ncco3)ncc2F)CC1)N1OCC[C@H]1c1cnccn1 [Example 13, [1-(5-fluoro-2-oxazol-2-yl-pyrimidin-4-yl)-4-piperidyl]-[(3S)-3-pyrazin-2-ylisoxazolidin-2-yl]methanone] | 27
7 | Cc1ccc([C@@H]2CCON2C(=O)C2CCN(c3nccc(-c4ccnn4C)n3)CC2)cn1 [Example 15, [1-[4-(2-methylpyrazol-3-yl)pyrimidin-2-yl]-4-piperidyl]-[(3S)-3-(6-methyl-3-pyridyl)isoxazolidin-2-yl]methanone] | 1
8 | Cc1cnn(-c2cc(N3CCC(C(=O)N4OCC[C@H]4c4ccc(C)nc4)CC3)ncn2)c1 [Example 17, [1-[6-(4-methylpyrazol-1-yl)pyrimidin-4-yl]-4-piperidyl]-[(3S)-3-(6-methyl-3-pyridyl)isoxazolidin-2-yl]methanone] | 39
9 | Cc1ccc([C@@H]2CCON2C(=O)C2CCN(c3cc(-c4ccnn4C)ncn3)CC2)cn1 [Example 18, [1-[6-(2-methylpyrazol-3-yl)pyrimidin-4-yl]-4-piperidyl]-[(3S)-3-(6-methyl-3-pyridyl)isoxazolidin-2-yl]methanone] | 70
10 | Cc1cn(-c2nc(N3CCC(C(=O)N4OCC[C@H]4c4cnccn4)CC3)ncc2F)c(C)n1 [Example 22, [1-[4-(2,4-dimethylimidazol-1-yl)-5-fluoro-pyrimidin-2-yl]-4-piperidyl]-[(3S)-3-pyrazin-2-ylisoxazolidin-2-yl]methanone] | 2
11 | Cc1nccn1-c1ncnc(N2CCC(C(=O)N3OCC[C@H]3c3cnccn3)CC2)n1 [Example 26, (S)-(1-(4-(2-methyl-1H-imidazol-1-yl)-1,3,5-triazin-2-yl)piperidin-4-yl)(3-(pyrazin-2-yl)isoxazolidin-2-yl)methanone] | 5
12 | O=C(C1CCN(c2ncc(F)c(-c3cncs3)n2)CC1)N1OCC[C@H]1c1cnccn1 [Example 27, (S)-(1-(5-fluoro-4-(thiazol-5-yl)pyrimidin-2-yl)piperidin-4-yl)(3-(pyrazin-2-yl)isoxazolidin-2-yl)methanone] | 1
13 | Cn1nccc1-c1cc(N2CCC(C(=O)N3OCC[C@H]3c3cnccn3)CC2)ncn1 [Example 28, (S)-(1-(6-(1-methyl-1H-pyrazol-5-yl)pyrimidin-4-yl)piperidin-4-yl)(3-(pyrazin-2-yl)isoxazolidin-2-yl)methanone] | 43
14 | O=C(C1CCN(c2ncc(F)c(-n3cccn3)n2)CC1)N1OCC[C@H]1c1cnccn1 [Example 32, (S)-(1-(5-fluoro-4-(1H-pyrazol-1-yl)pyrimidin-2-yl)piperidin-4-yl)(3-(pyrazin-2-yl)isoxazolidin-2-yl)methanone] | 1
15 | Cc1ccc([C@@H]2CCON2C(=O)C2CCN(c3ncnc(-n4ccnc4C)n3)CC2)cn1 [Example 35, [1-[4-(2-methylimidazol-1-yl)-1,3,5-triazin-2-yl]piperidin-4-yl]-[(3S)-3-(6-methylpyridin-3-yl)-1,2-oxazolidin-2-yl]methanone] | 2
16 | Cc1cncc([C@@H]2CCON2C(=O)C2CCN(c3nccc(N4CCOC4=O)n3)CC2)c1 [Example 36, 3-[2-[4-[(3S)-3-(5-methyl-3-pyridyl)isoxazolidine-2-carbonyl]-1-piperidyl]pyrimidin-4-yl]oxazolidin-2-one] | 25
17 | Cn1nccc1-c1cc(N2CC[C@@H](C(=O)N3OCC[C@H]3c3cnccn3)C3(CC3)C2)ncn1 [Example 39, [(8R)-5-[6-(2-methylpyrazol-3-yl)pyrimidin-4-yl]-5-azaspiro[2.5]octan-8-yl]-[(3S)-3-pyrazin-2-yl-1,2-oxazolidin-2-yl]methanone] | 20
18 | Cc1nc([C@@H]2CCON2C(=O)[C@@H]2CCN(c3cc(-c4ncnn4C)ncn3)CC23CC3)cs1 [Example 41, [(3S)-3-(2-methyl-1,3-thiazol-4-yl)-1,2-oxazolidin-2-yl]-[(8R)-5-[6-(2-methyl-1,2,4-triazol-3-yl)pyrimidin-4-yl]-5-azaspiro[2.5]octan-8-yl]methanone] | 44
19 | Cc1ncc([C@@H]2CCON2C(=O)C2CCN(c3cc(-c4ncnn4C)ncn3)CC2)cc1F [Example 49, [(3S)-3-(5-fluoro-6-methylpyridin-3-yl)-1,2-oxazolidin-2-yl]-[1-[6-(2-methyl-1,2,4-triazol-3-yl)pyrimidin-4-yl]piperidin-4-yl]methanone] | 15
20 | Cc1cncc([C@@H]2CCON2C(=O)C2CCN(c3nccc(N4CCC5(CC5)C4=O)n3)CC2)c1 [Example 51, 5-[2-[4-[(3S)-3-(5-methylpyridin-3-yl)-1,2-oxazolidine-2-carbonyl]piperidin-1-yl]pyrimidin-4-yl]-5-azaspiro[2.4]heptan-4-one] | 26
21 | Cc1nc([C@@H]2CCON2C(=O)C2CCN(c3nccc(N4CCC5(CC5)C4=O)n3)CC2)co1 [Example 54, 5-[2-[4-[(3S)-3-(2-methyl-1,3-oxazol-4-yl)-1,2-oxazolidine-2-carbonyl]piperidin-1-yl]pyrimidin-4-yl]-5-azaspiro[2.4]heptan-4-one] | 51
22 | Cc1cnc([C@@H]2CCON2C(=O)C2CCN(c3nccc(N4CCCC4=O)n3)CC2)cn1 [Example 55, 1-[2-[4-[(3S)-3-(5-methylpyrazin-2-yl)-1,2-oxazolidine-2-carbonyl]piperidin-1-yl]pyrimidin-4-yl]pyrrolidin-2-one] | 78
23 | O=C(C1CCN(c2nccc(N3CCC(F)(F)C3=O)n2)CC1)N1OCC[C@H]1c1cnccn1 [Example 58, 3,3-difluoro-1-[2-[4-[(3S)-3-pyrazin-2-yl-1,2-oxazolidine-2-carbonyl]piperidin-1-yl]pyrimidin-4-yl]pyrrolidin-2-one] | 65
24 | Cc1ncc([C@@H]2CCON2C(=O)C2CCN(c3nccc(N4CCC(C)(C)C4=O)n3)CC2)cc1F [Example 60, 1-[2-[4-[(3S)-3-(5-fluoro-6-methylpyridin-3-yl)-1,2-oxazolidine-2-carbonyl]piperidin-1-yl]pyrimidin-4-yl]-3,3-dimethylpyrrolidin-2-one] | 506
